Experimental data reported in US20090283050A1, “FEED COMPOSITION AND METHOD FOR BREEDING ANIMALS” (KENKO CORPORATION, priority 2005, published 2009).

Tested on: Salmonella
Experiment: Antimicrobial effect (MIC, MBC) on Salmonella
Format: cell-based
Details: compared with the other antimicrobial agents tested
Description: The antimicrobial effects of these samples were evaluated by the determination of Minimum Inhibitory Concentration (MIC) and Minimum Bactericidal Concentration (MBC).
In this connection, bacterial strains used herein were those obtained from enteric canal of broiler chicken.

CC1(C)S[C@@H]2[C@H](NC(=O)[C@H](N)c3ccccc3)C(=O)N2[C@H]1C(=O)O [Ampicillin]
antibacterial effect against Salmonella, in words: quite weak antibacterial effect
